The nature of the series: gradient 5% acetonitrile 3 min, to 50% in 2 min, to 85% in 15 min, held 3 min, 100 µL/min. The settings on record: column: Zorbax Extend-C18 2.1 x 50 mm; eluents: water / acetonitrile, 0.1% formic acid. In a few lines: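 Mixtures of ~100 pure standards were chromatographed on a Zorbax Extend-C18 column (2.1 × 50 mm, 1.8 μm) at 100 μL/min using water and acetonitrile, each with 0.1% formic acid. Detection used a quadrupole time-of-flight mass spectrometer in positive and negative ionization mode, and data collection spanned 3 months. Retention time was obtained from adduct peaks picked computationally and each checked manually.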
For the compound `O=C(NCCCN1CCOCC1)c1nc2ccccn2c1-c1ccc(F)cc1`, the RP-LC retention time was determined as 602 s. To `COc1ccc(-n2c(=O)c3sccc3n(Cc3nc(-c4ccccc4)no3)c2=O)cc1` belongs 953 s. The compound `Cc1cccc(OCC(=O)Nc2ccc3c(c2)Sc2ncccc2C(=O)N3C(C)C)c1` yielded an RP-LC retention time of 972 s. The compound `COc1ccc(Cc2cnc(NC(=O)C3Cc4ccccc4C(=O)O3)s2)cc1` (stereo not given) came in with an RP-LC retention time of 819 s. `Cc1c(C(=O)NCCOc2ccc3c(c2)OCO3)cccc1[N+](=O)[O-]` gave an RP-LC retention time of 778 s. Compound `O=C(CC1CCN(C(=O)Nc2ccc(Br)cc2F)CC1)N1CCCCC1` showed an RP-LC retention time of 835 s.

Compound `CCN(CC)c1ccc(-c2noc(CN3CCC4(CC3)OCCO4)n2)cn1` returned an RP-LC retention time of 579 s.

`CC(C)S(=O)(=O)N1CCC(c2noc(-c3cccnc3)n2)C1` (stereo not given): the RP-LC retention time came out at 730 s.

`COc1ccc(-c2noc(-c3ccc(NCCCN4CCC(N5CCCCC5)CC4)nn3)n2)cc1` returned an RP-LC retention time of 603 s. Regarding `CCn1nccc1C(=O)N1CCC(Nc2ncnc3c2CCC3)CC1`, the RP-LC retention time worked out at 557 s. The compound `O=C1COc2cc(S(=O)(=O)N3CCC(C(=O)NC4CCCCC4)CC3)c(Cl)cc2N1` displayed an RP-LC retention time of 772 s. `Cn1nccc1-c1cccc(-c2noc(-c3cccc(Br)c3)n2)c1` came in with an RP-LC retention time of 1300 s. `C=CCn1c(C)c(CC(=O)NCC2CCCO2)c(=O)n2nc(-c3ccccc3)nc12` (stereo not given) showed an RP-LC retention time of 717 s. With `CC(C)c1nc(C2CN(C(=O)Nc3cc(F)cc(F)c3)C2)n(C)n1` the figure was 717 s; with `O=C(NCc1ccc(F)cc1Cl)c1sc2ncccc2c1-n1cccc1`, 1060 s; with `COc1nn(C)cc1C(=O)N1CCCC(COCc2ccccc2)C1` (stereo not given), 742 s. As to `CCOCCCNC(=S)Nc1ccc2nc(N3CCN(CC)CC3)cc(C)c2c1`, the RP-LC retention time stood at 578 s. In turn, `CCOc1nc2ccccc2nc1N1CCCC(C(=O)Nc2ccc(Br)cc2C)C1` (stereo not given) showed an RP-LC retention time of 1320 s.

Take `Cc1csc(-c2csc(S(=O)(=O)NCc3cccs3)c2)n1`: the RP-LC retention time came out at 907 s. Compound `CCCC(=O)N1CCc2c([nH]c3ccccc23)C1c1ccc(C)cc1` (stereo not given) yielded an RP-LC retention time of 1150 s. As for `Cc1csc(NC(=O)C2CCN(S(=O)(=O)c3cc(-c4noc(C)n4)cs3)CC2)n1`, the RP-LC retention time is 829 s. `COc1cc(CN2CC(N(Cc3ccncc3)S(C)(=O)=O)C2)cc(OC)c1`: the RP-LC retention time stood at 568 s. On to `COc1ccc(CCNC(=O)Cn2nc3n(c2=O)CCCCC3)cc1OC`, for which the RP-LC retention time worked out at 641 s. `O=c1cc(CN(Cc2ccccc2)Cc2ccccc2)nc2ccc(Cl)cn12`: the RP-LC retention time stood at 745 s.

Take `CCCN1C(=O)COc2ccc(-c3noc(-c4ccccc4C(F)(F)F)n3)cc21`: the RP-LC retention time is 1230 s. The compound `CC(C)(C)CC(=O)N1CCCC(CCc2nnc(C3CCOCC3)o2)C1` (stereo not given) gave an RP-LC retention time of 758 s.

`COc1ccc(OCCN2CC(=O)N(c3ccc(C)c(C)c3)[C@@H]3CS(=O)(=O)C[C@@H]32)cc1`: the RP-LC retention time worked out at 859 s. `Cc1ccc2[nH]cc(CCNC(=O)c3ccc(N4CCCC4)c(S(=O)(=O)N4CCCC4)c3)c2c1` returned an RP-LC retention time of 998 s. In the case of `CCOc1ccccc1-c1noc(Cn2c(=O)n(-c3cccc(OC)c3)c(=O)c3sccc32)n1`, the RP-LC retention time was 964 s. Compound `CC1CCCN(CCCNC(=O)c2ccc3c(c2)NC(=O)C2CCCN32)C1` (stereo not given) yielded an RP-LC retention time of 579 s. `CN(C)CCCN1c2ccccc2Sc2ccc3ccccc3c21` returned an RP-LC retention time of 772 s.

Compound `CNC(=O)N1CCC(C2CCN(C(=O)CN3CCCC3=O)C2)CC1` (stereo not given) returned an RP-LC retention time of 585 s.

Regarding `CC(C)(C)c1cc(C(=O)Nc2ccccc2F)nc2ccnn12`, the RP-LC retention time stood at 1380 s. As for `O=C(NCCCN1CCCC1=O)c1cccc2c1CCN2C(=O)Nc1ccc(F)cc1`, the RP-LC retention time turned out to be 680 s. To `Cc1ccc(Sc2nccnc2N2CCCC(C(=O)Nc3ccc(C)cc3C)C2)cc1` (stereo not given) belongs 1150 s. In turn, `Cc1cc(Nc2ccc(C(=O)NC3CC3)cc2)n2nc(-c3cccnc3)nc2n1` came in with an RP-LC retention time of 612 s. `Cc1[nH]nc(-c2ccc(S(=O)(=O)NC3CC3)o2)c1C` had an RP-LC retention time of 723 s. As for `CCn1cc(-c2ccncc2)cc1C(=O)NCc1cc(C)ccc1C`, the RP-LC retention time was 705 s. Turning to `O=C(c1cn(-c2cc(N3CCCCC3)ncn2)cn1)N1CCC2(CC1)OCCO2`, the RP-LC retention time was determined as 750 s. `Cc1ccc(NC(=O)Cn2nc(N3CCCC(C)C3)c3ccccc3c2=O)c(F)c1` (stereo not given) yielded an RP-LC retention time of 1110 s. As for `COc1ccc(-c2nc(C3CC(=O)N(c4ccc(OC)cc4)C3)no2)cc1` (stereo not given), the RP-LC retention time was 904 s. In turn, `CCN1C(=O)c2ccccc2Oc2ccc(C(=O)NC3CCCCC3)cc21` gave an RP-LC retention time of 967 s. With `CC1Oc2ccccc2N(Cc2nc(-c3ccc(F)c(Cl)c3)no2)C1=O` (stereo not given) the figure was 1190 s; with `CCCNC(=O)Cn1c(=O)cc(-c2nc(C(C)C)no2)c2ccccc21`, 835 s.

For the compound `COc1ccc(-c2cc(N3CCN(C(=O)c4ccc(Br)o4)CC3)ncn2)cc1`, the RP-LC retention time is 591 s. With `Cc1nnc(-c2cc3ccccc3n2Cc2ccccc2Cl)o1` the figure was 1100 s. The compound `O=C(NCc1cccs1)C1CN(S(=O)(=O)c2cccnc2)CC12CCCCC2` (stereo not given) yielded an RP-LC retention time of 856 s.

With `O=C(Oc1coc(CSc2ncccn2)cc1=O)c1ccco1`, the RP-LC retention time was 667 s.

The compound `Cn1cnc2cc(-c3noc(CNC(=O)c4ccccc4)n3)ccc21` displayed an RP-LC retention time of 614 s. On to `CCc1nc(-c2ccc(OC3CCN(CCc4ccccc4)C3)cc2)no1` (stereo not given), for which the RP-LC retention time turned out to be 744 s. Compound `COc1ccc(CNC(=O)c2ccc(CN3CCN(C(C)C)C(=O)C3=O)cc2)cc1` registered an RP-LC retention time of 693 s. With `Cc1ccc(CNC(=O)N2CC(c3nc(C)no3)C3(CCOCC3)C2)cc1` (stereo not given), the RP-LC retention time is 731 s. Consider `Nc1cc(C2CCN(S(=O)(=O)Cc3ccc(F)cc3)CC2)no1`, for which the RP-LC retention time amounted to 747 s. With `O=C(c1ccco1)N1CCN(C(=O)c2sc3ncccc3c2-n2cccc2)CC1` the figure was 753 s. Compound `CCCCNC(=O)c1cnn(-c2ccc(-c3nc(C)no3)cn2)c1C` registered an RP-LC retention time of 853 s. The compound `Cc1cc(C)cc(NC(=O)Cc2csc3nc(-c4cccc(Cl)c4)cn23)c1` yielded an RP-LC retention time of 1070 s.

Compound `C(=C\c1ccccc1)/CN1CCN(C(c2ccccc2)c2ccccc2)CC1` returned an RP-LC retention time of 972 s. To `Cc1ccc(Cl)cc1N1CCN(C(=O)CCc2nnc3c4cc(-c5ccccc5)nn4ccn23)CC1` belongs 999 s; to `Cc1ccc(N2CC(c3nc(-c4cccnc4)no3)CC2=O)cc1Cl` (stereo not given), 862 s; to `O=C1[C@H]2CN(Cc3cccc(F)c3)C[C@H]2C(=O)N1CCc1ccccc1`, 804 s. The compound `CCOC(=O)c1c(C)[nH]c(CCC(=O)NCCOC)c1C` showed an RP-LC retention time of 668 s. `CCCN1C(=O)C(CC(=O)NCCOC)Sc2ncccc21` (stereo not given) had an RP-LC retention time of 632 s. `CCn1cc(-c2ccncc2)cc1C(=O)NCc1cccc(Br)c1` displayed an RP-LC retention time of 705 s.

As for `CCCC(=O)N1CCCN(C2=NS(=O)(=O)C(c3ccc(F)cc3)=C2C)CC1`, the RP-LC retention time amounted to 780 s. On to `CCCS(=O)(=O)N1CCCC(Cn2cc(COc3ccc4c(c3)CCC4)nn2)C1` (stereo not given), for which the RP-LC retention time was determined as 997 s. Compound `CCCC(C)C(=O)NC1CCN(C2=NS(=O)(=O)C(c3ccc(F)cc3)=C2C)CC1` (stereo not given) showed an RP-LC retention time of 856 s.

Take `O=C(Nc1nc(-c2nc3ccccc3s2)cs1)c1ccc([N+](=O)[O-])s1`: the RP-LC retention time is 1020 s. Consider `Cc1cccc(NS(=O)(=O)c2c[nH]c3ncccc23)c1C`, for which the RP-LC retention time was 762 s. For the compound `O=C1CCCN1c1ccc(Cn2nc3ccc(-c4ccc(Cl)cc4)nn3c2=O)cc1`, the RP-LC retention time was found to be 742 s. The compound `COc1cc(-c2noc(Cn3cnc4c(oc5ccccc54)c3=O)n2)cc(OC)c1OC` yielded an RP-LC retention time of 857 s. `CCOC(=O)c1[nH]c(C)c(C(=O)N2CCC(CC(=O)NC(C)CC)CC2)c1C` (stereo not given): the RP-LC retention time stood at 670 s. `Cc1cccc(CNC(=O)C2=C3CCCN3c3ccccc3S2(=O)=O)c1` gave an RP-LC retention time of 856 s. `Cc1noc(C)c1CN1CCN(C(=O)c2nc3ccccc3s2)CC1` gave an RP-LC retention time of 574 s. To `COc1ccc2c(c1)C1(CCN(C(=O)NC3CCCCC3)C1)C(=O)N2C` (stereo not given) belongs 778 s.

`COc1ccc(-c2nc(-c3ccc4c(c3)oc(=O)n4C(C)C)no2)cc1F` displayed an RP-LC retention time of 1160 s.

Take `Cc1ccc(N2CCCS2(=O)=O)cc1NS(=O)(=O)CCc1ccccc1`: the RP-LC retention time was 784 s.

Take `COc1ccc(NC(=O)Cn2nc3cc(C)nc(Nc4cc(C)cc(C)c4)n3c2=O)cc1`: the RP-LC retention time is 869 s. The compound `CSc1cccc(NC(=O)NCC(c2cccnc2)c2cn(C)c3ccccc23)c1` (stereo not given) came in with an RP-LC retention time of 733 s. The compound `COc1cc(OC)cc(C(=O)NC2CCN(Cc3c(C)noc3C)C2)c1` (stereo not given) had an RP-LC retention time of 613 s. For the compound `CCCN1C(=O)COc2cc(-c3noc(C(=O)NCCC4=CCCCC4)n3)ccc21`, the RP-LC retention time was 1180 s.

For the origin of these results see the METLIN SMRT retention time set (Domingo-Almenara et al. 2019).
